Results taken from PubChem BioAssay (NCI).
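Dose response: 5 concentrations. Exposure: 48 h. Format: 96-well plates. Endpoint: linear interpolation; highest concentration if not reached. The concentration for 50% growth inhibition is given as GI50. Definition used: TGI = concentration required for complete inhibition of growth.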

Experiments:
Test in all cases: growth of human tumour cells (NCI), 48 h
786-0 renal = system: 786-0 renal
A498 renal = system: A498 renal
A549 NSCLC = system: A549 NSCLC
ACHN renal = system: ACHN renal
BT-549 breast = system: BT-549 breast
CAKI-1 renal = system: CAKI-1 renal
CCRF-CEM leukemia = system: CCRF-CEM leukemia
COLO 205 colon = system: COLO 205 colon
DU-145 prostate = system: DU-145 prostate
EKVX NSCLC = system: EKVX NSCLC
HCC-2998 colon = system: HCC-2998 colon
HCT-116 colon = system: HCT-116 colon
HCT-15 colon = system: HCT-15 colon
HL-60(TB) leukemia = system: HL-60(TB) leukemia
HOP-62 NSCLC = system: HOP-62 NSCLC
HOP-92 NSCLC = system: HOP-92 NSCLC
HS 578T breast = system: HS 578T breast
HT29 colon = system: HT29 colon
IGROV1 ovarian = system: IGROV1 ovarian
K-562 leukemia = system: K-562 leukemia
KM12 colon = system: KM12 colon
LOX IMVI melanoma = system: LOX IMVI melanoma
M14 melanoma = system: M14 melanoma
MALME-3M melanoma = system: MALME-3M melanoma
MCF7 breast = system: MCF7 breast
MDA-MB-231 breast = system: MDA-MB-231 breast
MDA-MB-435 = system: MDA-MB-435
MOLT-4 leukemia = system: MOLT-4 leukemia
NCI-H226 lung = system: NCI-H226 lung
NCI-H23 lung = system: NCI-H23 lung
NCI-H460 lung = system: NCI-H460 lung
NCI-H522 lung = system: NCI-H522 lung
NCI/ADR-RES ovarian = system: NCI/ADR-RES ovarian
OVCAR-3 ovarian = system: OVCAR-3 ovarian
OVCAR-4 ovarian = system: OVCAR-4 ovarian
OVCAR-5 ovarian = system: OVCAR-5 ovarian
OVCAR-8 ovarian = system: OVCAR-8 ovarian
PC-3 prostate = system: PC-3 prostate
RPMI-8226 leukemia = system: RPMI-8226 leukemia
RXF 393 renal = system: RXF 393 renal
SF-268 CNS = system: SF-268 CNS
SF-295 CNS = system: SF-295 CNS
SF-539 CNS = system: SF-539 CNS
SK-MEL-2 melanoma = system: SK-MEL-2 melanoma
SK-MEL-28 melanoma = system: SK-MEL-28 melanoma
SK-MEL-5 melanoma = system: SK-MEL-5 melanoma
SK-OV-3 ovarian = system: SK-OV-3 ovarian
SN12C renal = system: SN12C renal
SNB-19 CNS = system: SNB-19 CNS
SNB-75 CNS = system: SNB-75 CNS
SR leukemia = system: SR leukemia
SW-620 colon = system: SW-620 colon
T-47D breast = system: T-47D breast
TK-10 renal = system: TK-10 renal
U251 CNS = system: U251 CNS
UACC-257 melanoma = system: UACC-257 melanoma
UACC-62 melanoma = system: UACC-62 melanoma
UO-31 renal = system: UO-31 renal

For `CN(C)C(=O)OCc1nc2c(N3CCOCC3)nc(-c3ccccc3)nc2n1C`, the GI50 (786-0 renal) was 892 nM, the TGI (786-0 renal) was 2310 nM and the GI50 (A498 renal) was 1340 nM. The TGI (A498 renal) was 2680 nM, the GI50 (A549 NSCLC) was 1560 nM and the TGI (A549 NSCLC) was 3750 nM. The GI50 (ACHN renal) was 415 nM, the TGI (ACHN renal) was 1430 nM and the GI50 (BT-549 breast) was 1040 nM. The TGI (BT-549 breast) was 2320 nM, the GI50 (CAKI-1 renal) was 450 nM and the TGI (CAKI-1 renal) was 1700 nM. The GI50 (CCRF-CEM leukemia) was 273 nM, the TGI (CCRF-CEM leukemia) was 1550 nM and the GI50 (COLO 205 colon) was 1320 nM. For the same compound, the TGI (COLO 205 colon) was 2970 nM, the GI50 (DU-145 prostate) was 1050 nM and the TGI (DU-145 prostate) was 2280 nM. It also gave a GI50 (EKVX NSCLC) of 1440 nM, a TGI (EKVX NSCLC) of 2950 nM and a GI50 (HCC-2998 colon) of 1560 nM. For the same compound, the TGI (HCC-2998 colon) was 3100 nM, the GI50 (HCT-116 colon) was 204 nM and the TGI (HCT-116 colon) was 616 nM. For the same compound, the GI50 (HCT-15 colon) was 220 nM, the TGI (HCT-15 colon) was 561 nM and the GI50 (HL-60(TB) leukemia) was 375 nM. For the same compound, the TGI (HL-60(TB) leukemia) was 1960 nM, the GI50 (HOP-62 NSCLC) was 1720 nM and the TGI (HOP-62 NSCLC) was 4460 nM. It also gave a GI50 (HOP-92 NSCLC) of 399 nM, a TGI (HOP-92 NSCLC) of 1240 nM and a GI50 (HS 578T breast) of 1420 nM. For the same compound, the TGI (HS 578T breast) was 4330 nM, the GI50 (HT29 colon) was 476 nM and the TGI (HT29 colon) was 1780 nM. The GI50 (IGROV1 ovarian) was 618 nM, the TGI (IGROV1 ovarian) was 1920 nM and the GI50 (K-562 leukemia) was 332 nM. It also gave a TGI (K-562 leukemia) of 3170 nM, a GI50 (KM12 colon) of 1540 nM and a TGI (KM12 colon) of 3320 nM. For the same compound, the GI50 (LOX IMVI melanoma) was 183 nM, the TGI (LOX IMVI melanoma) was 402 nM and the GI50 (M14 melanoma) was 609 nM. The TGI (M14 melanoma) was 1900 nM, the GI50 (MALME-3M melanoma) was 1570 nM and the TGI (MALME-3M melanoma) was 2960 nM. For the same compound, the GI50 (MCF7 breast) was 427 nM, the TGI (MCF7 breast) was 2090 nM and the GI50 (MDA-MB-231 breast) was 1250 nM. For the same compound, the TGI (MDA-MB-231 breast) was 2620 nM, the GI50 (MDA-MB-435) was 891 nM and the TGI (MDA-MB-435) was 2270 nM. The GI50 (MOLT-4 leukemia) was 497 nM, the TGI (MOLT-4 leukemia) was 3140 nM and the GI50 (NCI-H226 lung) was 1690 nM. The TGI (NCI-H226 lung) was 3650 nM, the GI50 (NCI-H23 lung) was 1620 nM and the TGI (NCI-H23 lung) was 3350 nM. For the same compound, the GI50 (NCI-H460 lung) was 1660 nM, the TGI (NCI-H460 lung) was 3520 nM and the GI50 (NCI-H522 lung) was 454 nM. For the same compound, the TGI (NCI-H522 lung) was 2020 nM, the GI50 (NCI/ADR-RES ovarian) was 1590 nM and the TGI (NCI/ADR-RES ovarian) was 6530 nM. The GI50 (OVCAR-3 ovarian) was 203 nM, the TGI (OVCAR-3 ovarian) was 433 nM and the GI50 (OVCAR-4 ovarian) was 790 nM. For the same compound, the TGI (OVCAR-4 ovarian) was 2160 nM, the GI50 (OVCAR-5 ovarian) was 1600 nM and the TGI (OVCAR-5 ovarian) was 3260 nM. The GI50 (OVCAR-8 ovarian) was 1260 nM, the TGI (OVCAR-8 ovarian) was 3240 nM and the GI50 (PC-3 prostate) was 507 nM. The TGI (PC-3 prostate) was 1310 nM, the GI50 (RPMI-8226 leukemia) was 189 nM and the TGI (RPMI-8226 leukemia) was 675 nM. The GI50 (RXF 393 renal) was 566 nM, the TGI (RXF 393 renal) was 1680 nM and the GI50 (SF-268 CNS) was 1390 nM. It also gave a TGI (SF-268 CNS) of 2770 nM, a GI50 (SF-295 CNS) of 1650 nM and a TGI (SF-295 CNS) of 3080 nM. It also gave a GI50 (SF-539 CNS) of 1400 nM, a TGI (SF-539 CNS) of 2720 nM and a GI50 (SK-MEL-2 melanoma) of 1770 nM. The TGI (SK-MEL-2 melanoma) was 3430 nM, the GI50 (SK-MEL-28 melanoma) was 1550 nM and the TGI (SK-MEL-28 melanoma) was 2900 nM. For the same compound, the GI50 (SK-MEL-5 melanoma) was 1420 nM, the TGI (SK-MEL-5 melanoma) was 2730 nM and the GI50 (SK-OV-3 ovarian) was 4060 nM. The TGI (SK-OV-3 ovarian) was 13500 nM, the GI50 (SN12C renal) was 912 nM and the TGI (SN12C renal) was 2310 nM. It also gave a GI50 (SNB-19 CNS) of 1530 nM, a TGI (SNB-19 CNS) of 2930 nM and a GI50 (SNB-75 CNS) of 1100 nM. It also gave a TGI (SNB-75 CNS) of 2370 nM, a GI50 (SR leukemia) of 252 nM and a TGI (SR leukemia) of 2980 nM. It also gave a GI50 (SW-620 colon) of 305 nM, a TGI (SW-620 colon) of 899 nM and a GI50 (T-47D breast) of 1850 nM. The TGI (T-47D breast) was 4620 nM, the GI50 (TK-10 renal) was 1460 nM and the TGI (TK-10 renal) was 2810 nM. For the same compound, the GI50 (U251 CNS) was 1470 nM, the TGI (U251 CNS) was 2980 nM and the GI50 (UACC-257 melanoma) was 1360 nM. The TGI (UACC-257 melanoma) was 2930 nM, the GI50 (UACC-62 melanoma) was 1390 nM and the TGI (UACC-62 melanoma) was 2730 nM. For the same compound, the GI50 (UO-31 renal) was 373 nM and the TGI (UO-31 renal) was 1550 nM.
